# Source: patent US9234000B2, “Benzylamine derivatives as inhibitors of plasma kallikrein” (KalVista Pharmaceuticals Limited, priority 2011, dated 2016)
# How the values were obtained:
# Type in all cases: biochemical
# Factor XIIa = Factor XIIa (Homo sapiens (Human), UniProt P00748); assay: Determination of enzyme selectivity: Factor XIIa; conditions: fluorogenic substrate at Km concentration
# Protocol: Determination of Enzyme Selectivity
# Human serine protease enzymes plasmin, thrombin, trypsin, Factor Xa and Factor XIIa were assayed for enzymatic activity using an appropriate fluorogenic substrate. Protease activity was measured by monitoring the accumulation of liberated fluorescence from the substrate over 5 minutes. The linear rate of fluorescence increase per minute was expressed as percentage (%) activity. The Km for the cleavage of each substrate was determined by standard transformation of the Michaelis-Menten equation.
# Human KLK1 = Human KLK1 (Homo sapiens (Human), UniProt P06870); assay: Determination of the IC50 for KLK1; conditions: Human KLK1, 37° C., substrate H-DVal-Leu-Arg-AFC; Table 13
# Chain of Human KLK1 (P06870 25-262): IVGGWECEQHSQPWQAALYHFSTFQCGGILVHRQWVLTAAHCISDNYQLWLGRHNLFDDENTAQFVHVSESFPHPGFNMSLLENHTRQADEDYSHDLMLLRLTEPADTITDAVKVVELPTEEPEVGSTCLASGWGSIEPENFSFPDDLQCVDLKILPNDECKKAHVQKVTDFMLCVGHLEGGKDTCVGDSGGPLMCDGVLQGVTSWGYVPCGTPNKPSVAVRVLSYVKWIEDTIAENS
# How it was run: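 Human KLK1 incubated at 37° C with fluorogenic substrate H-DVal-Leu-Arg-AFC and a range of test compound concentrations. Residual activity taken as initial reaction rate from absorbance change at 410 nm; IC50 derived from these rates.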
# Human plasma kallikrein = Human plasma kallikrein (Homo sapiens (Human), UniProt P03952); assay: Determination of the IC50 for plasma kallikrein; conditions: 37° C., substrate H-DPro-Phe-Arg-AFC, read-out: IC50 (human PKal)
# Chain of Human plasma kallikrein (P03952 391-638): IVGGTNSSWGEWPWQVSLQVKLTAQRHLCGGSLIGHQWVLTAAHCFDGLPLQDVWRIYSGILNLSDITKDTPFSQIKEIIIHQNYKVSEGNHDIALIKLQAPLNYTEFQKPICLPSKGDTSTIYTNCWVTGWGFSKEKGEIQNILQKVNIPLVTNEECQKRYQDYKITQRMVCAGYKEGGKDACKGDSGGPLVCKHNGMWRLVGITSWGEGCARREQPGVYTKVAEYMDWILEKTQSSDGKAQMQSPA
# Chain of Human plasma kallikrein (P03952 20-390 partner): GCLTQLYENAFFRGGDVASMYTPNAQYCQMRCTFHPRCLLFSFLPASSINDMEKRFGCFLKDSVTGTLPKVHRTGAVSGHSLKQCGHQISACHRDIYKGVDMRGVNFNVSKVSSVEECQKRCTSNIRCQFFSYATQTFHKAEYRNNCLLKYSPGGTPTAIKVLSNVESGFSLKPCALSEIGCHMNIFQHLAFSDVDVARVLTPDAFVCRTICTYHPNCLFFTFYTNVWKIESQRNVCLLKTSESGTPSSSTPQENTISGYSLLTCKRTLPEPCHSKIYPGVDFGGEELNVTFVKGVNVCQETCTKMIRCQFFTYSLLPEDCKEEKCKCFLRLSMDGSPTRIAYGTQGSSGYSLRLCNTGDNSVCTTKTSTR
# How it was run: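 Residual activity (initial rate, absorbance at 410 nm) gave the IC50. Reactions at 37° C combined human plasma kallikrein, substrate H-DPro-Phe-Arg-AFC and a range of inhibitor concentrations.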
# Chain of Factor XIIa (P00748 373-615): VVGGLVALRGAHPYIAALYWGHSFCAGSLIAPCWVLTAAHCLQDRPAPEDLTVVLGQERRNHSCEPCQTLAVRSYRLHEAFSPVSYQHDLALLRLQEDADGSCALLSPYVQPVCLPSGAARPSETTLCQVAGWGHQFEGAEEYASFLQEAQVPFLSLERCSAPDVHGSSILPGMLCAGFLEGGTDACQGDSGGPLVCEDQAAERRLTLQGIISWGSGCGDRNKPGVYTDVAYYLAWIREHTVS
SMILES,IC50 (Factor XIIa) [µM],IC50 (Human KLK1) [µM],IC50 (Human plasma kallikrein) [nM]
"CCOc1ccc(C[C@@H](NC(=O)Cc2ccccc2)C(=O)N[C@@H](Cc2ccccc2)C(=O)NCc2ccc(CN)cc2)cc1 [Example 85, (S)-N-(4-Aminomethyl-benzyl)-2-[(R)-3-(4-ethoxy-phenyl)-2-phenylacetylamino-propionylamino]-3-phenyl-propionamide]",> 10,2.9,485
"CCOc1ccc(C[C@@H](NC(=O)C23CC4CC(CC(C4)C2)C3)C(=O)N[C@@H](Cc2ccccc2)C(=O)NCc2ccc(CN)cc2)cc1 [Example 91, Adamantane-1-carboxylic acid [(R)-1-[(S)-1-(4-aminomethyl-benzylcarbamoyl)-2-phenyl-ethylcarbamoyl]-2-(4-ethoxy-phenyl)-ethyl]-amide]",> 10,> 10,2080
"CCOc1ccc(C[C@@H](NC(=O)c2cc(Cl)cc(Cl)c2)C(=O)N[C@@H](Cc2ccccc2)C(=O)NCc2ccc(CN)cc2)cc1 [Example 94, N-[(R)-1-[(S)-1-(4-Aminomethyl-benzylcarbamoyl)-2-phenyl-ethylcarbamoy]-2-(4-ethoxy-phenyl)-ethyl]-3,5-dichloro-benzamide]",> 10,> 10,1080
"CCOc1ccc(C[C@@H](NC(=O)/C=C/c2ccccc2)C(=O)N[C@@H](Cc2ccccc2)C(=O)NCc2ccc(CN)cc2)cc1 [Example 96, (E)-N-[(R)-1-[(S)-1-(4-Aminomethyl-benzylcarbamoyl)-2-phenyl-ethylcarbamoyl]-2-(4-ethoxy-phenyl)-ethyl]-3-phenyl-acrylamide]",> 10,> 10,764
"CCOc1ccc(C[C@@H](NC(=O)c2ccccc2)C(=O)N[C@@H](Cc2ccccc2)C(=O)NCc2ccc(CN)c(C)c2)cc1 [Example 182, N-[(R)-1-[(S)-1-(4-Aminomethyl-3-methyl-benzylcarbamoyl)-2-phenyl-ethylcarbamoyl]-2-(4-ethoxy-phenyl)-ethyl]-benzamide]",> 10,> 10,15
"CCOc1ccc(C[C@@H](NC(=O)c2sccc2N)C(=O)N[C@@H](Cc2cscn2)C(=O)NCc2ccc(CN)cc2)cc1 [Example 183, 3-Amino-thiophene-2-carboxylic acid [(R)-1-[(S)-1-(4-aminomethyl-benzylcarbamoyl)-2-thiazol-4-yl-ethylcarbamoyl]-2-(4-ethoxy-phenyl)-ethyl]-amide]",> 10,> 10,16
"CCOc1ccc(C[C@@H](NC(=O)c2sccc2Cl)C(=O)N[C@@H](Cc2cscn2)C(=O)NCc2ccc(CN)cc2)cc1 [Example 184, 3-Chloro-thiophene-2-carboxylic acid [(R)-1-[(S)-1-(4-aminomethyl-benzylcarbamoyl)-2-thiazol-4-yl-ethylcarbamoyl]-2-(4-ethoxy-phenyl)-ethyl]-amide]",> 10,> 10,10
"CCOc1ccc(C[C@@H](NC(=O)c2ccc(C)cc2)C(=O)N[C@@H](Cc2cscn2)C(=O)NCc2ccc(CN)cc2)cc1 [Example 185, N-[(R)-1-[(S)-1-(4-Aminomethyl-benzylcarbamoyl)-2-thiazol-4-yl-ethylcarbamoyl]-2-(4-ethoxy-phenyl)-ethyl]-4-methyl-benzamide]",> 10,> 10,49
"CCOc1ccc(C[C@@H](NC(=O)c2[nH]ccc2C)C(=O)N[C@@H](Cc2csc3ccccc23)C(=O)NCc2ccc(CN)cc2)cc1 [Example 186, 3-Methyl-1H-pyrrole-2-carboxylic acid [(R)-1-[(S)-1-(4-aminomethyl-benzylcarbamoyl)-2-benzo[b]thiophen-3-yl-ethylcarbamoyl]-2-(4-ethoxy-phenyl)-ethyl]-amide]",> 10,3.8,14

# The remaining lines, values ahead:
IC50 (Factor XIIa) [µM],IC50 (Human KLK1) [µM],IC50 (Human plasma kallikrein) [nM],SMILES
> 10,> 10,7,"CCOc1ccc(C[C@@H](NC(=O)c2sccc2N)C(=O)N[C@@H](Cc2cscn2)C(=O)NCc2ccc(CN)cc2)cc1 [Example 187, 3-Amino-thiophene-2-carboxylic acid [(R)-1-[(S)-1-(4-aminomethyl-benzylcarbamoyl)-2-thiazol-4-yl-ethylcarbamoyl]-2-(4-ethoxy-phenyl)-ethyl]-amide]"
> 10,> 10,36,"CCOc1ccc(C[C@@H](NC(=O)c2sccc2NC(C)=O)C(=O)N[C@@H](Cc2csc3ccccc23)C(=O)NCc2ccc(CN)cc2)cc1 [Example 188, 3-Acetylamino-thiophene-2-carboxylic acid [(R)-1-[(S)-1-(4-aminomethyl-benzylcarbamoyl)-2-benzo[b]thiophen-3-yl-ethylcarbamoyl]-2-(4-ethoxy-phenyl)-ethyl]-amide]"
> 10,> 10,23,"CCOc1ccc(C[C@@H](NC(=O)c2cccc(C)c2)C(=O)N[C@@H](Cc2cccnc2)C(=O)NCc2ccc(CN)cc2)cc1 [Example 189, N-[(R)-1-[(S)-1-(4-Aminomethyl-benzylcarbamoyl)-2-pyridin-3-yl-ethylcarbamoyl]-2-(4-ethoxy-phenyl)-ethyl]-3-methyl-benzamide]"
> 10,> 10,28,"CCOc1ccc(C[C@@H](NC(=O)c2ccccc2C)C(=O)N[C@@H](Cc2cccnc2)C(=O)NCc2ccc(CN)cc2)cc1 [Example 190, N-[(R)-1-[(S)-1-(4-Aminomethyl-benzylcarbamoyl)-2-pyridin-3-yl-ethylcarbamoyl]-2-(4-ethoxy-phenyl)-ethyl]-2-methyl-benzamide]"
> 10,> 10,20,"CCOc1ccc(C[C@@H](NC(=O)c2[nH]c(C)cc2C)C(=O)N[C@@H](Cc2ccccc2)C(=O)NCc2ccc(CN)cc2)cc1 [Example 191, 3,5-Dimethyl-1H-pyrrole-2-carboxylic acid [(R)-1-[(S)-1-(4-aminomethyl-benzylcarbamoyl)-2-phenyl-ethylcarbamoyl]-2-(4-ethoxy-phenyl)-ethyl]-amide]"
> 10,> 10,12,"CCOc1ccc(C[C@@H](NC(=O)c2ccccc2)C(=O)N[C@@H](Cc2cccnc2)C(=O)NCc2ccc(CN)c(C)c2)cc1 [Example 192, N-[(R)-1-[(S)-1-(4-Aminomethyl-3-methyl-benzylcarbamoyl)-2-pyridin-3-yl-ethylcarbamoyl]-2-(4-ethoxy-phenyl)-ethyl]-benzamide]"
> 10,> 10,25,"CCOc1ccc(C[C@@H](NC(=O)c2sccc2NC(C)=O)C(=O)N[C@@H](Cc2ccsc2)C(=O)NCc2ccc(CN)cc2)cc1 [Example 193, 3-Acetylamino-thiophene-2-carboxylic acid [(R)-1-[(S)-1-(4-aminomethyl-benzylcarbamoyl)-2-thiophen-3-yl-ethylcarbamoyl]-2-(4-ethoxy-phenyl)-ethyl]-amide]"
> 10,7.1,13,"CCOc1ccc(C[C@@H](NC(=O)c2sccc2N)C(=O)N[C@@H](Cc2csc3ccccc23)C(=O)NCc2ccc(CN)cc2)cc1 [Example 194, 3-Amino-thiophene-2-carboxylic acid [(R)-1-[(S)-1-(4-aminomethyl-benzylcarbamoyl)-2-benzo[b]thiophen-3-yl-ethylcarbamoyl]-2-(4-ethoxy-phenyl)-ethyl]-amide]"
